From paper PMC10384782, “New Phenolic Lipids from the Leaves of Clausena harmandiana Inhibit SARS-CoV-2 Entry into Host Cells” (Molecules, 2023) come the findings set out here.

Entries after “also recorded” stand apart in the source; their conditions may differ. A value given as a limit tells only on which side of the number the result lay.

The subject of data set [1] is SARS-CoV-2. In words: microbe, parasite or virus in culture. It is filed as cell-based. The settings on record: for selectivity index (SI): SARS-CoV-2, Vero-E6 cells; for IC50: Severe acute respiratory syndrome coronavirus 2, Vero C1008, 48 h, read-out: IC50 against SARS-CoV-2.
Data set [2] can be described thus: in vitro. The settings on record: human.
A short description of data set [3]: in vitro. To be noted: African green monkey.
Data set [4] relates to HCoV-229E. In words: HCoV-229E-Luc infection inhibition assay (fractions and pure compounds) in Huh7 cells. It is filed as cell-based. To be noted: for IC50: Human coronavirus 229E, Huh-7, 12 h, read-out: IC50 (concentration inhibited infection by 50%).
Data set [5] deals with SARS-CoV-2. The class given is cell-based.
Data set [6] deals with HCoV-229E. In words: Time-of-drug addition assay in HCoV-229E-Luc-infected Huh7 cells. The class given is cell-based. To be noted: 2 and 3 at 0.2 µM; for inhibition of infection when present during the virus entry step: Q3G 25 µM, co-added with virus for 1 h; for inhibition of infection when added after virus inoculation (replication step): Remdesivir 0.1 µM, luciferase activity.

The test system of data set [7] is HCoV-229E. The data set can be described thus: microbe, parasite or virus in culture. The class given is cell-based. The settings on record: Human coronavirus 229E, Huh-7; read-out: inhibition of infection after pre-incubation of virus particles.

Take `CCCC=CCCCCCCCCCCCC(O)Cc1cc(O)ccc1O` (stereo not drawn) [Compound 1, (2′. R)-2-[(14′Z)-2′-Hydroxyoctadec-14′-en-1′-yl]benzene-1,4-diol]: the “antiviral activity against SARS-CoV-2 (in words)” value in the data set on SARS-CoV-2 [1] (Vero-E6 cells, non-cytotoxic concentrations) is reported as “no antiviral activity”. Also, the results for the CC50 in the data set “in vitro [2]” and in “in vitro [3]” were 1300 ± 100 nM and 1500 ± 200 nM, respectively. For the same compound, the “antiviral activity against HCoV-229E (in words)” value in the data set with HCoV-229E [4] (non-cytotoxic doses (up to 0.25 µM), Huh7 cells) is listed as “no antiviral effect; also recorded: no antiviral activity”.
In the case of `CCCCC=CCCCCCCCCCCCC(O)Cc1cc(O)ccc1O` (stereo not drawn) [Compound 2, (2′R)-2-[(14′Z)-2′-hydroxynonadec-14′-en-1′-yl]benzene-1,4-diol], in the data set on SARS-CoV-2 [5], the “decrease of viral progeny (residual infectivity)” value is “up to 1 log”. Moreover, in the data set on SARS-CoV-2 [1], the “selectivity index (SI)” value came to 2.5 and the IC50 came to 200 nM. Further, in the data set on HCoV-229E [6], the “inhibition of infection when present during the virus entry step” value was “strong inhibition of infection” and the “inhibition of infection when added after virus inoculation (replication step)” value (from here on “inhibition of infection when added”) is recorded as “no inhibition of infection”. The CC50 in the data set “in vitro [2]” was 500 ± 50 nM. This compound had a CC50 in “in vitro [3]” of 500 ± 80 nM. For the same compound, in the data set on HCoV-229E [4], the “SI, selectivity index (CC50/IC50)” value was determined as 5 and the IC50 turned out to be 100 ± 30 nM. The “effect on HCoV-229E-Luc infection at 0.01 µM without pre-incubation” value in the data set on HCoV-229E [4] (Huh7 cells) was “does not inhibit”. Besides, the inhibition (as a rule, the drop in the measured response relative to a control, in per cent) at 0.2 µM with HCoV-229E [7] is at most 60%.
Take `CCCCCCCCCCCCCCCC[C@@H](O)Cc1cc(O)ccc1O` [Compound 3, (2′R)-(2-(2-hydroxyoctadecyl)benzene-1,4-diol)]: in the data set on SARS-CoV-2 [1], the “selectivity index (SI)” value is 18 and the IC50 is 50 nM. In addition, in the data set with HCoV-229E [6], the “inhibition of infection when present during the virus entry step” value is “strong inhibition of infection” and the “inhibition of infection when added” value is given as “no inhibition of infection”. In the data set “in vitro [2]”, this compound yielded a CC50 of 800 ± 100 nM. Moreover, the CC50 in the data set “in vitro [3]” stood at 900 ± 200 nM. In the data set with HCoV-229E [4], the “SI, selectivity index (CC50/IC50)” value was found to be 16 and the IC50 came to 50 ± 40 nM. The “effect on HCoV-229E-Luc infection at 0.01 µM without pre-incubation” value in the data set with HCoV-229E [4] (Huh7 cells) is listed as “does not inhibit”. Besides, the inhibition at 0.2 µM in the data set with HCoV-229E [7] was at most 80%.
Consider `O=c1c(O[C@@H]2O[C@H](CO)[C@@H](O)[C@H](O)[C@H]2O)c(-c2ccc(O)c(O)c2)oc2cc(O)cc(O)c12` [Compound Q3G, Isoquercitrin, reference compound], for which, in the data set with HCoV-229E [6], the “inhibition of infection when present during the virus entry step” value is “strong inhibition of infection”.
For the compound `CCC(CC)COC(=O)[C@H](C)N[P@](=O)(OC[C@H]1O[C@@](C#N)(c2ccc3c(N)ncnn23)[C@H](O)[C@@H]1O)Oc1ccccc1` [Remdesivir, reference compound], the “inhibition of infection when added” value with HCoV-229E [6] is “strongly inhibited viral replication”.
